Assay results: PubChem BioAssay AID602210 (Sanford-Burnham Center for Chemical Genomics, 2012)
Active and inactive are the calls of the source. The rule behind the calls is not given here.

Test: modulators of 2-deoxyglucose-induced H9c2 death, dose response, myocardial damage modulator project, cell-based, ATPlite luminescence, rat, set 2 (AID 602210)
Settings: H9c2 rat cardiomyoblasts, 2-deoxyglucose-induced death, 2 h
In the case of `COCc1c(C(=O)Nc2ccc3nc(N4CCOCC4)sc3c2)oc2ccccc12`, the IC50 is reported as 15 µM (inactive).
With `COc1cc(OC)cc(-c2cc3nc(C)c(CCC(=O)Nc4nc(C)cs4)c(C)n3n2)c1` the IC50 was 6.24 µM.
In the case of `O=c1cc(-c2cccnc2)oc2c1ccc1ccccc12`, the IC50 is reported as 16.4 µM (inactive).
With `CC(=O)c1cccc(Nc2nc3ccccc3n3cnnc23)c1` the IC50 was 8.67 µM.
In the case of `CCCc1cc(N2CCN(C(=O)c3ccco3)CC2)n2c(nc3ccccc32)c1C#N`, the IC50 is reported as 26.3 µM (inactive).
With `C[C@@H]1ON(C)[C@H]2C[C@H]3c4[nH]c5ccc(-c6ccc7c(c6)OCO7)cc5c4CCN3C[C@@H]12` the IC50 was > 79 µM (inactive).
For `CCOc1ccc(S(=O)(=O)N(C)CCO)cc1-c1nc2c(C(C)(C)C)nn(C)c2c(=O)[nH]1`, the IC50 was 33.2 µM (inactive).
With `NC(=O)c1nsc(C(=O)N(Cc2ccco2)C(C(=O)NCc2ccccc2)c2ccc(O)cc2)c1N` (centres undefined) the IC50 was 14.9 µM (inactive).
In the case of `COc1ccc(Nc2nnc(-c3ccc(O)cc3)c3ccccc23)cc1C(N)=O`, the IC50 is reported as > 79 µM (inactive).
Work on `CCOc1ncccc1C(=O)Nc1cccc(-c2nc3cccnc3s2)c1` yielded an IC50 of 7 µM.
With `C=CC[C@@H](CC(=O)N[C@H](CO)Cc1ccccc1)C(=O)N[C@@H](COC(=O)[C@@H](CC=C)CC(=O)OC(C)(C)C)Cc1ccccc1` the IC50 was 45.4 µM (inactive).
For `Cc1ccccc1C(C(=O)NCc1ccccc1)N(Cc1ccco1)C(=O)c1ccccn1` (centres undefined), the IC50 was 45.6 µM (inactive).
With `O=c1c2ccccc2nc2c3ccccc3c(NCCO)nn12` the IC50 was 70.6 µM (inactive).
With `COc1cc(C(=O)Nc2cc3c(cc2N2CCCCC2)n(C)c(=O)n3C)cc(OC)c1OC` the IC50 was 23.7 µM (inactive).
`COc1cc(-c2cc(NC(C)=O)c3ncc(-c4cc(OC)c(OC)c(OC)c4)n3c2)cc(OC)c1OC` gave an IC50 of 9.01 µM.
For `COc1cc(C(=O)Nc2cccc(-c3nnc(-c4ccco4)o3)c2)ccc1OC(C)=O`, the IC50 was 9.42 µM.
Compound `COc1ccc(-n2nc(C(=O)NCC(=O)Nc3cc(OC)c(OC)c(OC)c3)c3ccccc3c2=O)cc1Cl` has an IC50 of 7.79 µM.
With `O=C(Nc1cccnc1)c1sc(Nc2ccccc2)nc1-c1ccccc1` the IC50 was > 79 µM (inactive).
In the case of `CCOC(=O)C1=C(COC(=O)c2cc(OC)c(OC)c(OC)c2)NC(=O)NC1C` (centres undefined), the IC50 is reported as 42.8 µM (inactive).
For `NS(=O)(=O)c1ccc(CCNC(=O)c2ccc(C#CC3(O)CCCCC3)cc2)cc1`, the IC50 was 4.94 µM.
For `COc1cccc(-c2cnc3c(NC=O)cc(-c4cc(C)c(O)c(C)c4)cn23)c1`, the IC50 was 18.9 µM (inactive).
For `COc1cccc(/C=N/NC(=O)c2oc3nc(-c4ccccc4)cc(-c4ccco4)c3c2N)c1`, the IC50 was 10.5 µM (inactive).
In the case of `COc1ccc(N(CC(=O)Nc2cccc(C(C)=O)c2)S(=O)(=O)c2ccc(NC(C)=O)cc2)cc1`, the IC50 is reported as 13.4 µM (inactive).
In the case of `CN(C)S(=O)(=O)c1ccc2[nH]cc(/C=C/c3nc4ccccc4c(=O)n3-c3ccccc3)c2c1`, the IC50 is reported as 4.24 µM.
With `COc1cc(CCNc2ccc3nnc(-c4ccccc4)n3n2)cc(OC)c1OC` the IC50 was 30.6 µM (inactive).
In the case of `CC(=O)Nc1cc(-c2cccc(C(=O)N(C)C)c2)cn2c(-c3ccc(C(C)=O)cc3)cnc12`, the IC50 is reported as 27.1 µM (inactive).
Work on `CCOC(=O)c1ccc(NC(=O)c2nc[nH]c2C(=O)NCCCCCNC(=O)OC(C)(C)C)cc1` yielded an IC50 of 6.6 µM.
In the case of `CCc1nc(N2CCN(C(=O)c3ccco3)CC2)c2oc3ccccc3c2n1`, the IC50 is reported as 24.7 µM (inactive).
For `Cn1c(C(=O)NCCc2ccsc2)cc2c(=O)n(C)c3ccccc3c21`, the IC50 was 11.3 µM (inactive).
`COC(=O)c1cccc(Nc2nc(-c3cccnc3)nc3ccccc23)c1` showed an IC50 of 7.25 µM.
For `Fc1ccc(CSc2ccc3nnc(-c4cccnc4)n3n2)cc1`, the IC50 was 44.5 µM (inactive).
With `CCC1(CC)NC(=O)N(CC(=O)OCC(=O)Nc2ccccc2[N+](=O)[O-])C1=O` the IC50 was 21.4 µM (inactive).
For `O=C(N/N=C/c1cn(-c2ccccc2)nc1-c1cccnc1)c1ccccc1`, the IC50 was > 79 µM (inactive).
For `COc1ccc(-c2nn3c(-c4ccco4)nnc3s2)cc1OC`, the IC50 was 28.2 µM (inactive).
With `CCOc1cccc(-c2nn3c(-c4ccccn4)nnc3s2)c1` the IC50 was 30.2 µM (inactive).
In the case of `NC(=O)c1cccc(-c2coc3c(C(=O)NCCc4ccccc4)cccc23)c1`, the IC50 is reported as 13.3 µM (inactive).
With `O=C(NCCN1CCOCC1)c1cnn2c(-c3ccccc3)cc(-c3ccccc3)nc12` the IC50 was 30.8 µM (inactive).
For `COc1ccc(-c2cc(NC=O)c3ncc(-c4cccc(C(C)=O)c4)n3c2)cc1`, the IC50 was > 79 µM (inactive).
With `O=C(NCC1CCCO1)C(c1ccc(F)cc1)N(C(=O)Cn1nnc(-c2ccc(F)cc2)n1)c1cccc(O)c1` (centres undefined) the IC50 was 18.3 µM (inactive).
With `Cc1cc(NC(=O)C2CCCCC2)nc2c1c(=O)oc1ccccc12` the IC50 was 26.8 µM (inactive).
For `CC(C)(C)NC(=O)COC(=O)c1c2c(nc3ccccc13)CCC2`, the IC50 was 16.7 µM (inactive).
For `Cn1c(=O)[nH]c(=O)c2c1nc(Br)n2CC(O)COc1ccc(Cl)cc1` (centres undefined), the IC50 was 22.8 µM (inactive).
For `CSc1nc2ncc3c(n2n1)CC1c2ccccc2CCN1C3=O` (centres undefined), the IC50 was 51.3 µM (inactive).
With `COc1cc(NC(=O)c2ccc(-c3cn[nH]c3)c3ccoc23)cc(OC)c1OC` the IC50 was 15.4 µM (inactive).
`COc1cc(-c2cc(NC=O)c3ncc(-c4ccc(C(C)=O)cc4)n3c2)cc(OC)c1OC` gave an IC50 of 6.7 µM.
In the case of `O=C1c2ccccc2C(=O)N1CCCCSc1nc2ccccc2c(=O)n1CCCN1CCOCC1`, the IC50 is reported as > 79 µM (inactive).
For `Cc1c(O)ccc2c(-c3ccccc3)cc(=O)oc12`, the IC50 was 31.7 µM (inactive).
For `CCOC(=O)N1CCN(C(=O)CSc2nc3ccccc3c(=O)n2-c2ccccc2)CC1`, the IC50 was 34.5 µM (inactive).
In the case of `O=C(N/N=C/c1ccccn1)c1ccc(NC(=O)c2cccc([N+](=O)[O-])c2)cc1`, the IC50 is reported as > 79 µM (inactive).
In the case of `COc1ccc(CN(C)C(=O)C(Cc2ccccc2)NC(=O)c2ccccc2)cc1F` (centres undefined), the IC50 is reported as 10.5 µM (inactive).
In the case of `CC(C)CCN(C(=O)CNC(=O)c1ccco1)C(C(=O)NC1CCCCC1)c1ccco1` (centres undefined), the IC50 is reported as > 79 µM (inactive).
With `O=C(c1cc(=O)[nH]c2ccccc12)N1CCN(S(=O)(=O)c2ccc3ccccc3c2)CC1` the IC50 was 17.4 µM (inactive).
For `CCc1nnc(NC(=O)CCC(=O)N2CCN(C3c4ccccc4-c4ccccc43)CC2)s1`, the IC50 was 29.1 µM (inactive).
For `C=CC[C@@H](CC(=O)NCCO)C(=O)NC[C@H](OC(=O)[C@@H](CC=C)Cc1ccc(F)cc1)c1ccccc1`, the IC50 was 11.9 µM (inactive).
In the case of `CCOc1cc(/C=C/c2ccc3cccc([N+](=O)[O-])c3n2)ccc1OCC(=O)N(C)C`, the IC50 is reported as 18.3 µM (inactive).
In the case of `CCN1C(=O)/C(=C/c2nc3ccccc3c(=O)[nH]2)c2ccccc21`, the IC50 is reported as 27.9 µM (inactive).
In the case of `C=CCOC(=O)C1=C[C@H](c2cn(C(C)=O)c3ccccc23)C[C@H](OCc2ccc(CO)cc2)O1`, the IC50 is reported as 21.5 µM (inactive).
For `CC(C)OCCCNC(=O)CCC(=O)NNc1nc2ccccc2c2nc(-c3ccccc3)nn12`, the IC50 was 22.2 µM (inactive).
For `COc1cc(CN2C[C@@H](CO)O[C@@H](n3cnc4c(Nc5ccccc5)ncnc43)C2)cc(OC)c1OC`, the IC50 was 17.5 µM (inactive).
For `O=C(NC1CCCCC1)C(c1ccc2ncccc2c1)N(Cc1ccccc1)C(=O)c1ccc2c(c1)OCCO2` (centres undefined), the IC50 was 29.4 µM (inactive).
With `COc1ccc(-c2cc3nc(-c4ccccc4)cc(N4CCN(C(C)=O)CC4)n3n2)cc1` the IC50 was 16.1 µM (inactive).
Compound `CSc1nc2ccc(S(=O)(=O)Nc3c(C)n(C)n(-c4ccccc4)c3=O)cc2s1` has an IC50 of 8.98 µM.
In the case of `CCOc1ccccc1N1CC(O)=C(c2nc3ccccc3s2)C1=N`, the IC50 is reported as 13.8 µM (inactive).
In the case of `COc1ccc(Cl)cc1-c1nc(-c2ccc(NC(=O)c3cccs3)cc2)no1`, the IC50 is reported as > 79 µM (inactive).
`Cc1ncc(CO)c2cc(C(=O)Nc3ccccc3Cl)c(=Nc3cccc(C(N)=O)c3)oc12` showed an IC50 of 2.43 µM.
With `CNC(=O)c1cccc(NC(=O)c2cc(-c3ccccc3)nc3c2cnn3C(C)C)c1` the IC50 was 14.3 µM (inactive).
In the case of `COc1ccc(Cl)cc1NC(=O)CCS(=O)(=O)c1cc2c(cc1C)NC(=O)CO2`, the IC50 is reported as 26 µM (inactive).
`N#Cc1ccccc1S(=O)(=O)N1CCN(c2nc(-c3cccnc3)nc3ccccc23)CC1` gave an IC50 of 8.75 µM.
For `Cc1cc(C)c(C)c(S(=O)(=O)N2CCN(C(=O)c3cc(=O)[nH]c4ccccc34)CC2)c1C`, the IC50 was 5.01 µM.
With `COc1cc(-c2cc(C(=O)OCC(=O)NC3CC3)c3ccccc3n2)cc(OC)c1OC` the IC50 was 13.2 µM (inactive).
In the case of `CC(C)(C)OC(=O)CNC(=O)c1[nH]cnc1C(=O)NCC(=O)OCc1ccccc1`, the IC50 is reported as 4.16 µM.
For `CCn1c(=O)cc(OCC(=O)Nc2ccccc2C#N)c2ccccc21`, the IC50 was 43.9 µM (inactive).
In the case of `Cn1c2ccccc2c2cc(/C=N/NC(=O)c3cc(O)ccc3O)ccc21`, the IC50 is reported as > 79 µM (inactive).
In the case of `c1cc2[nH]snc2c2nc(C3CC3)nc12`, the IC50 is reported as 10.6 µM (inactive).
With `CCOCCn1ccc2c(OCC(=O)Nc3cc(OC)ccc3OC)cccc2c1=O` the IC50 was > 79 µM (inactive).
With `O=C(CCCn1c(SCC(=O)c2ccc(O)c(O)c2)nc2ccccc2c1=O)NCC1CCCO1` (centres undefined) the IC50 was 36.8 µM (inactive).
For `COc1ccc(-c2cc(NC=O)c3ncc(-c4ccccc4)n3c2)cc1OC`, the IC50 was > 79 µM (inactive).
For `COC(=O)/C(=C(O)\C=C\c1ccccc1[N+](=O)[O-])c1nc2ccccc2[nH]1`, the IC50 was 13.5 µM (inactive).
With `Cc1ccc(C)c(C(=O)Nc2cc(C)nn2-c2nc(C)cc(C)n2)c1` the IC50 was 30.1 µM (inactive).
In the case of `COC(=O)c1ccccc1NC(=O)c1ccc2nccnc2c1`, the IC50 is reported as 48.8 µM (inactive).
In the case of `COc1ccc(OCC(O)Cn2c(Nc3cccc(C)c3)nc3c2c(=O)n(C)c(=O)n3C)cc1` (centres undefined), the IC50 is reported as 34 µM (inactive).
In the case of `COc1cc(/C=c2\s/c(=C(/C#N)C(=O)N3CCCC3)n(-c3ccccc3)c2=O)ccc1O`, the IC50 is reported as > 79 µM (inactive).
With `O=C1N[C@H](Cc2ccccc2)COC(=O)[C@@H](Cc2ccc(F)cc2)C/C=C\C[C@H]1CC(=O)N(CCO)Cc1ccccc1` the IC50 was 19.3 µM (inactive).
In the case of `COc1ccc(OC)c(/C=N/NC(=O)c2cc3c(OC)c(OC)ccc3[nH]2)c1`, the IC50 is reported as 8.62 µM.
For `COc1nc(N/N=C/c2cc3c(cc2Br)OCO3)nc(N2CCOCC2)n1`, the IC50 was 17.4 µM (inactive).
For `O=CNc1cc(-c2ccc(C(=O)NC3CC3)cc2)cn2c(-c3ccccc3)cnc12`, the IC50 was 16.1 µM (inactive).
With `COCCn1nnnc1CN(CCc1ccccc1)Cc1cc2cc(OC)ccc2[nH]c1=O` the IC50 was > 79 µM (inactive).
For `COc1cc(/C=C(\C#N)c2nc3ccc(C)cc3[nH]2)c([N+](=O)[O-])cc1OC`, the IC50 was 26.4 µM (inactive).
For `COc1ccc(CCn2c(=N)c(C(=O)NCC3CCCO3)cc3c(=O)n4cccc(C)c4nc32)cc1OC` (centres undefined), the IC50 was > 79 µM (inactive).
